# Experiment: Blood constituents and health monitoring in rhesus males after EP055 infusion
# Assay type: in vivo, Macaca mulatta
# Design: Hematocrit: unit not given here
# Conditions: post low dose 75–80 mg/kg
# Source text: The physical and behavioral condition of animals are monitored daily at ONPRC. Additional monitoring by Division of Comparative Medicine and/or clinical veterinary staff was provided immediately, at 1 hr, 2 hr and 6 hr post-administration of the contraceptive compound, and daily for up to 30 days after the final drug injection. Criteria used to assess animal health and welfare include: stool and urine quality and quantity, appetite and attitude (bright and alert, quiet, lethargic), pain (not eating, not moving, hunched over, lethargy/disinterest), vomiting, diarrhea, nausea, dehydration (unkempt coat, lack of urine production), and signs of wounds of injury. In addition, the ONPRC Standardized Pain Scoring system is used post-surgically to monitor an animal’s progress and improvement over time. Major criteria include animal appearance, posture, activity (including stool and urine production), vocalization and atypical behaviors.
# Prior to infusion of EP055, each male was sedated with ketamine by the surgical staff at ONPRC and transported to the operating room. After positioning in dorsal recumbency, the male was intubated and placed under inhalant (isoflurane) anesthesia. Bilateral intravenous catheters were placed in cephalic veins, one for infusion and one for back-up. A percutaneous arterial line was placed in the right femoral artery for direct blood pressure measurement. Invasive blood pressure, heart rate, SpO2, and respirations were monitored by the surgical staff throughout the procedure. Initially, the low doses of EP055 in 5% DMSO-PBS 7.6 was infused by i.v. at 75-80 mg/kg, using a Medfusion 3500 pump (Smiths Medical, St. Paul, MN), and was started at a low flow rate ([…]). In 3 of 4 males, a 5-10% increase in blood pressure and heart rate were noted within the first 2-3 minutes of infusion of EP055. In these cases, the infusion was temporarily suspended until these parameters subsequently declined to normal. The infusion rate was then doubled to 1.2 ml/kg/min after 5-10 minutes and the final volume of EP055 infusate was administered. Blood pressure and heart rate remained normal throughout the rest of the infusion interval. The total volume of EP055 infusate ranged from 72 ml – 136 ml, depending upon the weight of the animal, and the duration of infusion was 10-13 minutes. Following completion of the infusion, all animals recovered normally. Animals were monitored by clinical veterinary staff immediately, at 1 hr, 2 hr and 6-8 hr post-infusion, and daily for up to 30 days after the final infusion of EP055. […] Two weeks after the infusion of the low dose and collection of the next set of baseline semen samples, males were infused with the high dose of EP055 (125-130 mg/kg) as described above, and monitored similarly.
# Blood was collected from the brachial vein at the time of each semen collection, and used to determine complete blood counts and serum biochemistry tests (including electrolytes, glucose, lipids, proteins, enzymes and metabolic by-products) as performed in the Clinical Pathology Laboratory in the Division of Comparative Medicine at ONPRC.
compound,measurement,setting,value
COC(=O)NNc1nc(Nc2ccc(NC(C)=O)c(O)c2)nc(SCC(=O)O)n1 [EP055],GGT,6-8 hrs,70.5 ± 2.1- U/l
same,GLUC,6-8 hrs,89.0 ± 6.7 mg/dL
same,Hematocrit,6-8 hrs,44.3 ± 1.0
same,Hemoglobin,6-8 hrs,14.4 ± 0.3 g/dL
same,Leukocytes,6-8 hrs,12.8 ± 2.7 x 10^3/mm^3
same,Lymphocytes,6-8 hrs,18.8 ± 1.9%
same,MCH,6-8 hrs,24.5 ± 0.3 pg/cell
same,MCHC,6-8 hrs,32.6 ± 0.1 g/dL
same,MCV,6-8 hrs,75.1 ± 1.2 fl/cell
same,Magnesium,6-8 hrs,1.8 ± 0.0 mg/dL
same,Monocytes,6-8 hrs,4.9 ± 0.1%
same,Neutrophils,6-8 hrs,9.5 ± 2.0 x 10^3/mm^3
same,Phosphorus,6-8 hrs,5.3 ± 0.3 mg/dL
same,Platelets,6-8 hrs,268.5 ± 38.7 x 10^6
same,Potassium,6-8 hrs,3.9 ± 0.2 mEq/l
same,Sodium,6-8 hrs,149.0 ± 0.9 mEq/l
same,Total Bilirubin,6-8 hrs,0.2 ± 0.1 mg/dL
same,Total Protein,6-8 hrs,7.5 ± 0.0 g/dL
same,Triglycerides,6-8 hrs,63.8 ± 5.7 mg/dL
same,ALT,28-30 hrs,54.3 ± 3.8 U/l
same,AST,28-30 hrs,51.0 ± 6.6 U/l
same,Albumin,28-30 hrs,4.8 ± 0.1 g/dL
same,Alkaline Phosphatase,28-30 hrs,128.5 ± 12.5 U/l
same,BUN,28-30 hrs,15.0 ± 1.5 mg/dL
same,Basophils,28-30 hrs,0.6 ± 0.1%
same,CREAT,28-30 hrs,1.0 ± 0.0 mg/dL
same,Chloride,28-30 hrs,110.3 ± 0.9 mEq/l
same,Cholesterol,28-30 hrs,149.5 ± 19.5 mg/dL
same,Eosinophils,28-30 hrs,1.4 ± 0.1%
same,Erythrocytes,28-30 hrs,5.9 ± 0.3 x 10^6/mm^3
same,GGT,28-30 hrs,72.5 ± 3.9 U/l
same,GLUC,28-30 hrs,90.0 ± 10.3 mg/dL
same,Hematocrit,28-30 hrs,43.9 ± 1.9
same,Hemoglobin,28-30 hrs,14.4 ± 0.7 g/dL
same,Leukocytes,28-30 hrs,11.8 ± 3.1 x 10^3/mm^3
same,Lymphocytes,28-30 hrs,31.1 ± 4.8%
same,MCH,28-30 hrs,24.4 ± 0.2 pg/cell
same,MCHC,28-30 hrs,32.7 ± 0.3 g/dL
same,MCV,28-30 hrs,74.7 ± 1.0 fl/cell
same,Magnesium,28-30 hrs,1.7 ± 0.1 mg/dL
same,Monocytes,28-30 hrs,5.7 ± 0.3%
same,Neutrophils,28-30 hrs,7.2 ± 2.0 x 10^3/mm^3
same,Phosphorus,28-30 hrs,4.0 ± 0.5 mg/dL
same,Platelets,28-30 hrs,185.8 ± 35.8 x 10^6
same,Potassium,28-30 hrs,4.2 ± 0.2 mEq/l
same,Sodium,28-30 hrs,149.0 ± 1.1 mEq/l
same,Total Bilirubin,28-30 hrs,0.2 ± 0.0 mg/dL
same,Total Protein,28-30 hrs,7.7 ± 0.2 g/dL
same,Triglycerides,28-30 hrs,75.3 ± 28.9 mg/dL
same,ALT,78 hrs,60.3 ± 12.2 U/l
same,AST,78 hrs,73.8 ± 33.6 U/l
same,Albumin,78 hrs,4.7 ± 0.1 g/dL
same,Alkaline Phosphatase,78 hrs,125.3 ± 16.3 U/l
same,BUN,78 hrs,18.8 ± 3.2 mg/dL
same,Basophils,78 hrs,0.6 ± 0.1%
same,CREAT,78 hrs,1.0 ± 0.0 mg/dL
same,Chloride,78 hrs,108.0 ± 0.8 mEq/l
same,Cholesterol,78 hrs,144.0 ± 17.0 mg/dL
same,Eosinophils,78 hrs,2.0 ± 0.5%
same,Erythrocytes,78 hrs,5.5 ± 0.2 x 10^6/mm^3
same,GGT,78 hrs,65.3 ± 2.7 U/l
same,GLUC,78 hrs,91.5 ± 7.4 mg/dL
same,Hematocrit,78 hrs,40.6 ± 0.8
same,Hemoglobin,78 hrs,13.3 ± 0.3 g/dL
same,Leukocytes,78 hrs,11.2 ± 3.3 x 10^3/mm^3
same,Lymphocytes,78 hrs,33.7 ± 5.0%
same,MCH,78 hrs,24.5 ± 0.3 pg/cell
same,MCHC,78 hrs,32.8 ± 0.1 g/dL
same,MCV,78 hrs,74.6 ± 1.2 fl/cell
same,Magnesium,78 hrs,1.8 ± 0.0 mg/dL
same,Monocytes,78 hrs,5.5 ± 0.5%
same,Neutrophils,78 hrs,6.6 ± 2.2 x 10^3/mm^3
same,Phosphorus,78 hrs,4.1 ± 0.6 mg/dL
same,Platelets,78 hrs,270.8 ± 25.8 x 10^6
same,Potassium,78 hrs,4.0 ± 0.1 mEq/l
same,Sodium,78 hrs,147.0 ± 1.2 mEq/l
same,Total Bilirubin,78 hrs,0.2 ± 0.0 mg/dL
same,Total Protein,78 hrs,7.6 ± 0.1 g/dL
same,Triglycerides,78 hrs,57.3 ± 14.1 mg/dL
same,ALT,Recovery,31.7 ± 2.3 U/l
same,AST,Recovery,42.3 ± 2.6 U/l
same,Albumin,Recovery,4.3 ± 0.1 g/dL
same,Alkaline Phosphatase,Recovery,79.0 ± 2.3 U/l
same,BUN,Recovery,16.5 ± 1.9 mg/dL
same,Basophils,Recovery,0.5 ± 0.1%
same,CREAT,Recovery,0.8 ± 0.0 mg/dL
same,Chloride,Recovery,107.0 ± 0.0 mEq/l
same,Cholesterol,Recovery,138.7 ± 19.3 mg/dL
same,Eosinophils,Recovery,1.4 ± 0.3%
same,Erythrocytes,Recovery,5.7 ± 0.2- x 10^6/mm^3
same,GGT,Recovery,62.3 ± 1.8 U/l
same,GLUC,Recovery,58.3 ± 4.5 mg/dL
same,Hematocrit,Recovery,42.4 ± 1.1
same,Hemoglobin,Recovery,13.8 ± 0.4 g/dL
same,Leukocytes,Recovery,5.9 ± 1.0 x 10^3/mm^3
same,Lymphocytes,Recovery,44.8 ± 5.4%
same,MCH,Recovery,24.1 ± 0.4 pg/cell
same,MCHC,Recovery,32.5 ± 0.2 g/dL
same,MCV,Recovery,74.1 ± 0.9 fl/cell
same,Magnesium,Recovery,1.9 ± 0.1 mg/dL
same,Monocytes,Recovery,6.4 ± 0.2%
same,Neutrophils,Recovery,4.5 ± 1.7 x 10^3/mm^3
same,Phosphorus,Recovery,5.1 ± 0.2 mg/dL
same,Platelets,Recovery,295.7 ± 11.8 x 10^6
same,Potassium,Recovery,4.0 ± 0.1 mEq/l
same,Sodium,Recovery,146.7 ± 0.3 mEq/l
same,Total Bilirubin,Recovery,0.2 ± 0.0 mg/dL
same,Total Protein,Recovery,7.1 ± 0.1 g/dL
same,Triglycerides,Recovery,38.0 ± 6.9 mg/dL

# From paper PMC5908160, “Inhibition of sperm motility in male macaques with EP055, a potential non-hormonal male contraceptive” (PLoS ONE, 2018)
